Here are results for four compounds from patent US5679805A, “Photochromic spironaphthopyran compounds” (Vision-Ease Lens, Inc., priority 1995, dated 1997).

Series [1] in a line: fade time T1/2 of chloroform-dissolved photochromic compounds after isolation from ultraviolet light. To be noted: room temperature (72° F.); for T1/2 (fade time): absorbance of activated form to one half of maximum. Details: key to T1/2 (fade time), footnoted reading: *: Fades too fast to obtain readings. In kind it is physicochemical. How it is done: Additionally, a purchased sample of 3,3-diphenyl-naphtho-3H[2,1-b]pyran, identified as Comparative Example 2, was dissolved in a separate container of chloroform.
Each of the chloroform-dissolved photochromic compounds of Examples 1-3 and Comparative Examples 1-2 were then irradiated with ultraviolet light with a maximum wavelength of 350 nanometers, and the maximum absorption wavelength λmax was determined for each of the chloroform-dissolved photochromic compound. The fade time, T1/2 was then determined for each of the irradiated compounds. The fade time for a particular chloroform dissolved photochromic compound is defined as the time interval, at room temperature (72° F.), for the absorbance of the activated form of the chloroform-dissolved photochromic compound to decrease to one half of the maximum absorbance, after the photochromic compound is isolated from the activating source of ultraviolet light. The maximum absorption wavelength and fade time determined for each of the irradiated photochromic compounds of Examples 1-3 and Comparative Examples 1-2 are presented in Table 1: […]

The conditions of series [2]: cited from earlier work.
Series [3] can be described thus: maximum absorption wavelength of chloroform-dissolved photochromic compounds irradiated with ultraviolet light. Format: physicochemical. The following applies: for maximum absorption wavelength λmax: Chloroform, maximum wavelength of 350 nanometers; for maximum wavelength of activation vs Comparative Example 1: compared with Comparative Example 1, 3,3-diphenyl-8-methoxy-3H-naphtho[2,1-b]pyran.

The nature of series [4]: color on activation by ultraviolet light. Format: physicochemical.
[5] abbreviates: irradiated with ultraviolet light.

Take `COc1ccc2c3c(ccc2c1)OC(c1ccccc1)(c1ccccc1)C=C3` [Comparative Example 1, 3,3-diphenyl-8-methoxy-3H-naphtho[2,1-b]pyran, reference compound]: in series [1], the “T1/2 (fade time)” value stood at 10 s.

Consider `C1=CC(c2ccccc2)(c2ccccc2)Oc2ccc3ccccc3c21` [Comparative Example 2, 3,3-diphenyl-naphtho-3H[2,1b]pyran, reference compound], for which the “photochromic at room temperature” value in series [2] is listed as “photochromic at room temperature”. Besides, the “T1/2 (fade time)” value in series [1] amounted to 13 s. Further, in series [3] (setting [5]), the “maximum absorption wavelength λmax” value is recorded as 435.

Consider `C1=CC2(Oc3ccc4c5c(ccc4c31)OC1(C=C5)c3ccccc3-c3ccccc31)c1ccccc1-c1ccccc12` [Example 1], for which the “T1/2 (fade time), footnoted reading” value in series [1] is recorded as “*”. For the same compound, the “maximum absorption wavelength λmax” value in series [3] (setting [5]) turned out to be 490. Besides, in series [3], the “maximum wavelength of activation vs Comparative Example 1” value is recorded as “longer maximum wavelength of activation”.

In the case of `C1=CC2(Oc3ccc4c5c(ccc4c31)OC1(C=C5)c3ccccc3Sc3ccccc31)c1ccccc1Sc1ccccc12` [Example 2], in series [1], the “T1/2 (fade time)” value worked out at 1.9 s. Moreover, the “maximum absorption wavelength λmax” value in series [3] (setting [5]) is recorded as 502. Also, the “maximum wavelength of activation vs Comparative Example 1” value in series [3] was “longer maximum wavelength of activation”. Further, the “activated maximum wavelength of absorption” value in series [3] (dissolved in chloroform, irradiated with ultraviolet light) is recorded as “about 502 nanometers”. In series [4] (activated by ultraviolet light), the “color when activated by ultraviolet light” value is recorded as “deep shade of red”. Moreover, the “color of blend with blue-turning photochromic compounds when activated” value in series [4] (blend with blue-turning photochromic compounds, such as substituted spiroindolino naphthoxazine, ultraviolet radiation) was “intense shade of gray”.
